The record followed here is patent US20130344026A1, “Dimeric Smac Mimetics” (priority 2009, published 2013).

Where two headings read alike, the source gives them in different places.

The experiment concerns PANC-1 cells. The experiment in a line: cell viability assay in PANC-1 cells (compound alone, + 100 ng/ml TNFa, + 300 ng/ml TRAIL). Type of experiment: cell-based.
[1] abbreviates: Homo sapiens, PANC-1, compound alone, Tables 15-18, read-out: IC50 (uM) in cell viability assay in PANC-1 cells: Cmpnd alone.
The mark [2] stands for this setting: with 100 ng/ml TNFa, Tables 15-18, read-out: IC50 (uM) in cell viability assay in PANC-1 cells: Cmpnd + 100 ng/ml TNFa.
[3] abbreviates: with 300 ng/ml TRAIL, Tables 15-18, read-out: IC50 (uM) in cell viability assay in PANC-1 cells: Cmpnd + 300 ng/ml TRAIL.
[4] abbreviates: Homo sapiens, PANC-1 cells, compound alone, read-out: IC50 (uM) in cell viability assay in PANC-1 cells, Cmpnd alone.
The mark [5] stands for this setting: PANC-1 cells, + 100 ng/ml TNFa, read-out: IC50 (uM) in cell viability assay in PANC-1 cells, Cmpnd + 100 ng/ml TNFa.
The mark [6] stands for this setting: PANC-1 cells, + 300 ng/ml TRAIL, read-out: IC50 (uM) in cell viability assay in PANC-1 cells, Cmpnd + 300 ng/ml TRAIL.
Setting [7] is: PANC-1 cells, compound alone, read-out: IC50 (uM) in cell viability assay in PANC-1 cells, Cmpnd alone.

Take `CN[C@@H](C)C(=O)N[C@@H](CC(=O)NCC#CC#CCNC(=O)C[C@H](NC(=O)[C@H](C)NC)C(=O)N1CCC[C@H]1C(=O)N[C@@H]1CCCc2ccccc21)C(=O)N1CCC[C@H]1C(=O)N[C@@H]1CCCc2ccccc21` [Compound P2-41]: the IC50 under setting [1] is greater than 1 µM, the IC50 under setting [2] is 0.094 µM and the IC50 under setting [3] was found to be 0.092 µM.
For `CN[C@@H](C)C(=O)N[C@@H](CC(=O)NCC=CC=CCNC(=O)C[C@H](NC(=O)[C@H](C)NC)C(=O)N1CCC[C@H]1C(=O)N[C@@H]1CCCc2ccccc21)C(=O)N1CCC[C@H]1C(=O)N[C@@H]1CCCc2ccccc21` [Compound P2-42] the same measures were greater than 1 µM, 0.091 µM and 0.148 µM.
On to `CN[C@@H](C)C(=O)N[C@@H](CCNCc1ccc(CNCC[C@H](NC(=O)[C@H](C)NC)C(=O)N2CCC[C@H]2C(=O)N[C@@H]2CCCc3ccccc32)cc1)C(=O)N1CCC[C@H]1C(=O)N[C@@H]1CCCc2ccccc21` [Compound P2-43], for which the IC50 under setting [1] is greater than 1 µM, the IC50 under setting [2] was determined as 0.012 µM and the IC50 under setting [3] came to 0.016 µM.
With `CN[C@@H](C)C(=O)N[C@@H](CCC(=O)Nc1cccc(CCc2cccc(NC(=O)CC[C@H](NC(=O)[C@H](C)NC)C(=O)N3CCC[C@H]3C(=O)N[C@@H]3CCCc4ccccc43)c2)c1)C(=O)N1CCC[C@H]1C(=O)N[C@@H]1CCCc2ccccc21` [Compound P2-44], the IC50 runs as follows: under setting [1], greater than 1 µM; under setting [2], 0.017 µM; under setting [3], 0.01 µM.
As to `CN[C@@H](C)C(=O)NC(CCC(=O)Nc1ccc(CCc2ccc(NC(=O)CCC(NC(=O)[C@H](C)NC)C(=O)N3CCC[C@H]3C(=O)N[C@@H]3CCCc4ccccc43)cc2)cc1)C(=O)N1CCC[C@H]1C(=O)NC1CCCc2ccccc21` (stereo partly drawn) [Compound P2-45], the IC50 is greater than 1 µM under setting [1], 0.002 µM under setting [2] and 0.004 µM under setting [3].
For `CN[C@@H](C)C(=O)N[C@H](C(=O)N1C[C@H](NC(=O)c2ccc(CCc3ccc(C(=O)N[C@@H]4C[C@@H](C(=O)N[C@@H]5CCCc6ccccc65)N(C(=O)[C@@H](NC(=O)[C@H](C)NC)C(C)(C)C)C4)cc3)cc2)C[C@H]1C(=O)N[C@@H]1CCCc2ccccc21)C(C)(C)C` [Compound P2-46] the same measures were greater than 1 µM, 0.0007 µM and 0.0009 µM.
With `CN[C@@H](C)C(=O)N[C@@H](CCCCCC[C@H](NC(=O)[C@H](C)NC)C(=O)N1CCC[C@H]1CNC(=O)c1ccccn1)C(=O)N1CCC[C@H]1CNC(=O)c1ccccn1` [Compound P2-47], the IC50 under setting [1] was greater than 1 µM, the IC50 under setting [2] came to 0.108 µM and the IC50 under setting [3] was determined as 0.153 µM.
Consider `CN[C@@H](C)C(=O)N[C@@H](CCCCNC(=O)c1cccc(C(=O)NCCCC[C@H](NC(=O)[C@H](C)NC)C(=O)N2CCC[C@H]2Cn2nnnc2Sc2ccccc2)c1)C(=O)N1CCC[C@H]1Cn1nnnc1Sc1ccccc1` [Compound P2-48], for which the IC50 reads like this: under setting [1], greater than 1 µM; under setting [2], 0.263 µM; under setting [3], 0.398 µM.
For `CN[C@@H](C)C(=O)N[C@@H](CCC(=O)Nc1cccc(C#Cc2cccc(NC(=O)CC[C@H](NC(=O)[C@H](C)NC)C(=O)N3CCC[C@H]3C(=O)N[C@@H]3CCCc4ccccc43)c2)c1)C(=O)N1CCC[C@H]1C(=O)N[C@@H]1CCCc2ccccc21` [Compound P2-49], in that order: greater than 1 µM, 0.033 µM and 0.033 µM.
For `CN[C@@H](C)C(=O)N[C@@H](CCNC(=O)c1ccc(-c2ccc(C(=O)NCC[C@H](NC(=O)[C@H](C)NC)C(=O)N3CCC[C@H]3C(=O)N[C@@H]3CCCc4ccccc43)cc2)cc1)C(=O)N1CCC[C@H]1C(=O)N[C@@H]1CCCc2ccccc21` [Compound P2-50] the same measures were greater than 1 µM, 0.067 µM and 0.019 µM.
Regarding `CN[C@@H](CO)C(=O)N[C@H](C(=O)N1C[C@@H](NC(=O)c2cccc(C(=O)N[C@H]3C[C@@H](C(=O)N[C@H](C)c4ccccc4)N(C(=O)[C@@H](NC(=O)[C@H](CO)NC)C(C)(C)C)C3)c2)C[C@H]1C(=O)N[C@H](C)c1ccccc1)C(C)(C)C` [Compound P3-90], the IC50 is greater than 1 µM under setting [4], 0.007 µM under setting [5] and 0.021 µM under setting [6].
Consider `CN[C@@H](CO)C(=O)N[C@H](C(=O)N1C[C@@H](NC(=O)c2cc(C(=O)N[C@H]3C[C@@H](C(=O)N[C@H](C)c4ccccc4)N(C(=O)[C@@H](NC(=O)[C@H](CO)NC)C(C)(C)C)C3)[nH]n2)C[C@H]1C(=O)N[C@H](C)c1ccccc1)C(C)(C)C` [Compound P3-91], for which the IC50 under setting [4] is greater than 1 µM, the IC50 under setting [5] was 0.152 µM and the IC50 under setting [6] is 0.225 µM.
`CN[C@@H](C)C(=O)N[C@H](C(=O)N1C[C@@H](NC(=O)c2nc[nH]c2C(=O)N[C@H]2C[C@@H](C(=O)N[C@H](C)c3ccccc3)N(C(=O)[C@@H](NC(=O)[C@H](C)NC)C(C)(C)C)C2)C[C@H]1C(=O)N[C@H](C)c1ccccc1)C(C)(C)C` [Compound P3-92]: the IC50 under setting [4] was greater than 1 µM, the IC50 under setting [5] worked out at 0.099 µM and the IC50 under setting [6] is 0.072 µM.
For `CN[C@@H](C)C(=O)N[C@H](C(=O)N1C[C@@H](NC(=O)CCCCCCCCC(=O)N[C@H]2C[C@@H](C(=O)N[C@H](C)c3ccccc3)N(C(=O)[C@@H](NC(=O)[C@H](C)NC)C(C)(C)C)C2)C[C@H]1C(=O)N[C@H](C)c1ccccc1)C(C)(C)C` [Compound P3-93] the same measures were greater than 1 µM, 0.012 µM and 0.043 µM.
For `CN[C@@H](C)C(=O)N[C@H](C(=O)N1C[C@@H](NC(=O)c2ccc(C(=O)N[C@H]3C[C@@H](C(=O)N[C@@H]4CCCc5ccccc54)N(C(=O)[C@@H](NC(=O)[C@H](C)NC)C(C)(C)C)C3)nc2)C[C@H]1C(=O)N[C@@H]1CCCc2ccccc21)C(C)(C)C` [Compound P3-94], in that order: greater than 1 µM, 0.003 µM and 0.006 µM.
Regarding `CN[C@@H](C)C(=O)N[C@H](C(=O)N1C[C@@H](NC(=O)c2[nH]c(C(=O)N[C@H]3C[C@@H](C(=O)N[C@H](C)c4ccccc4)N(C(=O)[C@@H](NC(=O)[C@H](C)NC)C(C)(C)C)C3)c3c2OCCO3)C[C@H]1C(=O)N[C@H](C)c1ccccc1)C(C)(C)C` [Compound P3-95], the IC50 was greater than 1 µM under setting [4], 0.006 µM under setting [5] and 0.006 µM under setting [6].
For the compound `CN[C@@H](C)C(=O)N[C@H](C(=O)N1C[C@@H](NC(=O)C2CCCC(C(=O)N[C@H]3C[C@@H](C(=O)N[C@H](C)c4ccccc4)N(C(=O)[C@@H](NC(=O)[C@H](C)NC)C(C)(C)C)C3)C2)C[C@H]1C(=O)N[C@H](C)c1ccccc1)C(C)(C)C` (stereo partly drawn) [Compound P3-96], the IC50 is greater than 1 µM under setting [4], 0.055 µM under setting [5] and 0.006 µM under setting [6].
For `CN[C@@H](C)C(=O)N[C@H](C(=O)N1C[C@@H](NC(=O)C2CCCC(C(=O)N[C@H]3C[C@@H](C(=O)N[C@H](C)c4ccccc4)N(C(=O)[C@@H](NC(=O)[C@H](C)NC)C(C)(C)C)C3)C2)C[C@H]1C(=O)N[C@H](C)c1ccccc1)C(C)(C)C` (stereo partly drawn) [Compound P3-97], the IC50 under setting [5] was determined as 0.059 µM, the IC50 under setting [6] was 0.065 µM and the IC50 under setting [7] is greater than 1 µM.
Consider `CN[C@@H](C)C(=O)N[C@@H](CCC(=O)Nc1ccc(C#Cc2ccc(NC(=O)CC[C@H](NC(=O)[C@H](C)NC)C(=O)N3CCC[C@H]3C(=O)N[C@@H]3CCCc4ccccc43)cc2)cc1)C(=O)N1CCC[C@H]1C(=O)N[C@@H]1CCCc2ccccc21` [Compound P3-98], for which the IC50 is greater than 1 µM under setting [4], 0.01 µM under setting [5] and 0.012 µM under setting [6].
For `CN[C@@H](C)C(=O)N[C@H](C(=O)N1C[C@@H](NC(=O)c2cccc(C(=O)N[C@H]3C[C@@H](C(=O)N[C@H](CO)c4ccccc4)N(C(=O)[C@@H](NC(=O)[C@H](C)NC)C(C)(C)C)C3)c2)C[C@H]1C(=O)N[C@H](CO)c1ccccc1)C(C)(C)C` [Compound P3-99] the same measures were greater than 1 µM, 0.062 µM and 0.054 µM.
For `CN[C@@H](C)C(=O)N[C@H](C(=O)N1C[C@@H](NC(=O)c2ccc(C#Cc3ccc(C(=O)N[C@H]4C[C@@H](C(=O)N[C@@H]5CCCc6ccccc65)N(C(=O)[C@@H](NC(=O)[C@H](C)NC)C(C)(C)C)C4)cc3)cc2)C[C@H]1C(=O)N[C@@H]1CCCc2ccccc21)C(C)(C)C` [Compound P3-100], in that order: greater than 1 µM, 0.054 µM and 0.055 µM.
For `CN[C@@H](C)C(=O)N[C@H](C(=O)N1C[C@@H](NC(=O)C23CC4CC(C2)CC(C(=O)N[C@H]2C[C@@H](C(=O)N[C@H](C)c5ccccc5)N(C(=O)[C@@H](NC(=O)[C@H](C)NC)C(C)(C)C)C2)(C4)C3)C[C@H]1C(=O)N[C@H](C)c1ccccc1)C(C)(C)C` [Compound P3-101] the same measures were greater than 1 µM, 0.001 µM and 0.001 µM.
For the compound `CN[C@@H](C)C(=O)N[C@H](C(=O)N1C[C@@H](NC(=O)C2CCCC(C(=O)N[C@H]3C[C@@H](C(=O)N[C@H](C)c4ccccc4)N(C(=O)[C@@H](NC(=O)[C@H](C)NC)C(C)(C)C)C3)C2)C[C@H]1C(=O)N[C@H](C)c1ccccc1)C(C)(C)C` (stereo partly drawn) [Compound P3-102], the IC50 was 0.017 µM under setting [5], 0.023 µM under setting [6] and greater than 1 µM under setting [7].
`CN[C@@H](C)C(=O)N[C@H](C(=O)N1C[C@@H](Oc2cccc(C#CC#Cc3cccc(O[C@H]4C[C@@H](C(=O)N[C@@H]5CCCc6ccccc65)N(C(=O)[C@@H](NC(=O)[C@H](C)NC)C(C)(C)C)C4)c3)c2)C[C@H]1C(=O)N[C@@H]1CCCc2ccccc21)C(C)(C)C` [Compound P3-103]: the IC50 under setting [4] was greater than 1 µM, the IC50 under setting [5] amounted to 0.0316 µM and the IC50 under setting [6] stood at 0.037 µM.
